{"source": "patent US20090246169A1", "about": "“INDOLOPYRIDINES AS EG5 KINESIN MODULATORS” (priority 2006, published 2009)", "data": [{"test_system": "RKO p21 colon adenocarcinoma cells, uninduced (proliferating)", "assay": "Alamar Blue cell viability assay, RKO p21 uninduced (proliferating)", "format": "cell-based", "conditions": "Homo sapiens; anti-proliferative/cytotoxic activity, 72 hours, without Ponasterone A; read-out: −log EC50 [mol/l] RKO p21 uninduced (proliferating) (converted)", "protocol": "The anti-proliferative/cytotoxic activity of the compounds described herein can be tested on subclones of RKO human colon adenocarcinoma cells (Schmidt et al., Oncogene 19, 2423-2429; 2000) using the Alamar Blue cell viability assay (described in O'Brien et al. Eur J Biochem 267, 5421-5426, 2000). The compounds are dissolved as 10 mM solutions in DMSO and subsequently diluted in semi-logarithmic steps. DMSO dilutions are further diluted 1:100 into Dulbecco's modified Eagle's medium (DMEM) containing 10% fetal calf serum to a final concentration twice as much as the final concentration in the test. RKO subclones are seeded into 96 well flat bottom plates at a density of 4000 cells per well in a volume of 50 μl per well. 24 hours after seeding the 50 μl each of the compound dilutions in DMEM medium are added into each well of the 96 well plate. Each compound dilution is tested as triplicates. Wells containing untreated control cells are filled with 50 μl DMEM medium containing 1% DMSO. The cells are then incubated with the substances for 72 hours at 37° C. in a humidified atmosphere containing 5% carbon dioxide. To determine the viability of the cells, 10 μl of an Alamar Blue solution (Biosource) are added and the fluorescence is measured at an extinction of 544 nm and an emission of 590 nm. For the calculation of the cell viability the emission value from untreated cells is set as 100% viability and the emission rates of treated cells are set in relation to the values of untreated cells. Viabilities are expressed as % values. The Graphpad Prism program is used for the calculation of EC50 values for anti-proliferative/cytotoxic activity out of the obtained dose-response curves.\nTo determine the cell cycle specific mode of action, subclones of RKO colon adenocarcinoma cells (RKOp21 or RKOp27 as described by Schmidt et al. in Oncogene 19, 2423-2429; 2000) are seeded into 96 well flat bottom plates at a density of 16000 cells per well in a volume of 50 μl per well in DMEM growth medium with 10% FCS containing 10 μM Ponasterone A. 24 hours after seeding the 50 μl each of the compound dilutions in DMEM medium are added into each well of the 96-well plate. Each compound dilution is tested as triplicates. Wells containing untreated control cells are filled with 50 μl DMEM medium containing 1% DMSO. The cells are then incubated with the substances for 72 hours at 37° C. in a humidified atmosphere containing 5% carbon dioxide. To determine the viability of the cells, 10 μl of an Alamar Blue solution (Biosource) are added and the fluorescence is measured at an extinction of 544 nm and an emission of 590 nm. For the calculation of the cell viability the emission value from untreated cells is set as 100% viability and the emission rates of treated cells are set in relation to the values of untreated cells. Viabilities are expressed as % values. The Graphpad Prism program (GraphPad Software, Inc) is used for the calculation of EC50 values out of the obtained dose-response curves. Viability is compared of proliferating cells grown in the absence of the inducer Ponasterone A, versus viability of cells arrested by the expression of ectopic p27Kip1 induced by Ponasterone A.\nRepresentative values for anti-proliferation/cytotoxicity [measured as −log EC50 (mol/l)] determined in the aforementioned assays follow from the following tables B1 and B2, in which the numbers of the compounds correspond to the numbers of the examples.", "units": {"EC50": "µM"}, "values": [{"smiles": "CCN(CCO)CCN1C(=O)N2[C@H](c3ccccc3)c3[nH]c4ccc(OC)cc4c3C[C@@]2(C)C1=O", "note": "(racemic) [Example 36, (3aSR, 10RS)-2-{2-[Ethyl-(2-hydroxy-ethyl)-amino]-ethyl}-6-methoxy-3a-methyl-10-phenyl-3a,4,9,10-tetra-hydro-2,9,10a-triaza-cyclo-penta[b]fluorene-1,3-dione]", "EC50": "≤ 1"}, {"smiles": "COc1ccc2[nH]c3c(c2c1)C[C@@]1(C)C(=O)N(CCCN2CCN(C(C)=O)CC2)C(=O)N1[C@@H]3c1ccccc1", "note": "(racemic) [Example 69, (3aSR, 10RS)-2-[3-(4-Acetyl-piperazin-1-yl)-propyl]-6-methoxy-3a-methyl-10-phenyl-3a,4,9,10-tetra-hydro-2,9,10a-triaza-cyclo-penta[b]fluorene-1,3-dione]", "EC50": "≤ 1"}, {"smiles": "COc1ccc2[nH]c3c(c2c1)C[C@@]1(C)C(=O)N(CCCN2CC=CC2)C(=O)N1[C@@H]3c1ccccc1", "note": "(racemic) [Example 64, (3aSR, 10RS)-2-[3-(2,5-Dihydro-pyrrol-1-yl)-propyl]-6-methoxy-3a-methyl-10-phenyl-3a,4,9,10-tetrahydro-2,9,10a-triaza-cyclopenta [b]fluorene-1,3-dione]", "EC50": "≤ 1"}, {"smiles": "COc1ccc2[nH]c3c(c2c1)C[C@@]1(C)C(=O)N(CCN2CCCCC2)C(=O)N1[C@@H]3c1ccccc1", "note": "(racemic) [Example 32, (3aSR, 10RS)-6-Methoxy-3a-methyl-10-phenyl-2-(2-piperidin-1-yl-ethyl)-3a,4,9,10-tetrahydro-2,9,10a-triaza-cyclopenta[b]fluorene-1,3-dione]", "EC50": "≤ 1"}, {"smiles": "COc1ccc2[nH]c3c(c2c1)C[C@@]1(C)C(=O)N(CCNC2CC2)C(=O)N1[C@@H]3c1ccccc1", "note": "(racemic) [Example 49, (3aSR, 10RS)-2-(2-Cyclo-propylamino-ethyl)-6-methoxy-3a-methyl-10-phenyl-3a,4,9,10-tetrahydro-2,9,10a-triaza-cyclopenta [b]fluorene-1,3-dione]", "EC50": "≤ 1"}, {"smiles": "COc1ccc2[nH]c3c(c2c1)C[C@@]1(C)C(=O)N(CCN2CCCCCC2)C(=O)N1[C@@H]3c1ccccc1", "note": "(racemic) [Example 43, (3aSR, 10RS)-2-(2-Azepan-1-yl-ethyl)-6-methoxy-3a-methyl-10-phenyl-3a,4,9,10-tetrahydro-2,9,10a-triaza-cyclopenta[b]fluorene-1,3-dione]", "EC50": "≤ 1"}, {"smiles": "COc1ccc2[nH]c3c(c2c1)C[C@@]1(C)C(=O)N(CCCNCCO)C(=O)N1[C@@H]3c1ccccc1", "note": "(racemic) [Example 75, (3aSR, 10RS)-2-[3-(2-Hydroxy-ethylamino)-propyl]-6-methoxy-3a-methyl-10-phenyl-3a,4,9,10-tetrahydro-2,9,10a-triaza-cyclopenta[b] fluorene-1,3-dione]", "EC50": "≤ 1"}, {"smiles": "COc1ccc2[nH]c3c(c2c1)C[C@@]1(C)C(=O)N(CCN2CC=CC2)C(=O)N1[C@@H]3c1ccccc1", "note": "(racemic) [Example 31, (3aSR, 10RS)-2-[2-(2,5-Dihydro-pyrrol-1-yl)-ethyl]-6-methoxy-3a-methyl-10-phenyl-3a,4,9,10-tetrahydro-2,9,10a-triaza-cyclopenta[b] fluorene-1,3-dione]", "EC50": "≤ 1"}, {"smiles": "COc1ccc2[nH]c3c(c2c1)C[C@@]1(C)C(=O)N(CCCNCC(F)F)C(=O)N1[C@@H]3c1ccccc1", "note": "[Example 50, (3aS, 10R)-2-[3-(2,2-Difluoro-ethylamino)-propyl]-6-methoxy-3a-methyl-10-phenyl-3a,4,9,10-tetrahydro-2,9,10a-triaza-cyclopenta[b] fluorene-1,3-dione]", "EC50": "≤ 1"}, {"smiles": "COc1ccc2[nH]c3c(c2c1)C[C@@]1(C)C(=O)N(CCNC(C)C)C(=O)N1[C@@H]3c1ccccc1", "note": "(racemic) [Example 19, (3aSR,10RS)-2-(2-Isopropylamino-ethyl)-6-methoxy-3a-methyl-10-phenyl-3a,4,9,10-tetrahydro-2,9,10a-triaza-cyclopenta[b]fluorene-1,3-dione]", "EC50": "≤ 1"}, {"smiles": "CNCCN1C(=O)N2[C@H](c3ccccc3)c3[nH]c4ccc(OC)cc4c3C[C@@]2(C)C1=O", "note": "(racemic) [Example 14, (3aSR,10RS)-6-Methoxy-3a-methyl-2-(2-methylamino-ethyl)-10-phenyl-3a,4,9,10-tetrahydro-2,9,10a-triaza-cyclopenta[b]fluorene-1,3-dione]", "EC50": "≤ 1"}, {"smiles": "CCN(C)CCCN1C(=O)N2[C@H](c3ccccc3)c3[nH]c4ccc(OC)cc4c3C[C@@]2(C)C1=O", "note": "(racemic) [Example 53, (3aSR, 10RS)-2-[3-(Ethyl-methyl-amino)-propyl]-6-methoxy-3a-methyl-10-phenyl-3a,4,9,10-tetrahydro-2,9,10a-triaza-cyclopenta[b] fluorene-1,3-dione]", "EC50": "≤ 1"}, {"smiles": "CCN(CC)CCCN1C(=O)N2[C@H](c3ccccc3)c3[nH]c4ccc(OC)cc4c3C[C@@]2(C)C1=O", "note": "(racemic) [Example 54, (3aSR, 10RS)-2-(3-Diethyl-amino-propyl)-6-methoxy-3a-methyl-10-phenyl-3a,4,9,10-tetrahydro-2,9,10a-triaza-cyclopenta[b]fluorene-1,3-dione]", "EC50": "≤ 1"}, {"smiles": "CCNCCCN1C(=O)N2[C@H](c3ccccc3)c3[nH]c4ccc(OC)cc4c3C[C@@]2(C)C1=O", "note": "(racemic) [Example 44, (3aSR, 10RS)-2-(3-Ethyl-amino-propyl)-6-methoxy-3a-methyl-10-phenyl-3a,4,9,10-tetrahydro-2,9,10a-triaza-cyclopenta[b]fluorene-1,3-dione]", "EC50": "≤ 1"}, {"smiles": "COc1ccc2[nH]c3c(c2c1)C[C@@]1(C)C(=O)N(CCNCC2CC2)C(=O)N1[C@@H]3c1ccccc1", "note": "(racemic) [Example 25, (3aSR, 10RS)-2-[2-(Cyclo-propylmethyl-amino)-ethyl]-6-methoxy-3a-methyl-10-phenyl-3a,4,9,10-tetrahydro-2,9,10a-triaza-cyclopenta [b]fluorene-1,3-dione]", "EC50": "≤ 1"}, {"smiles": "C=CCN(C)CCCN1C(=O)N2[C@H](c3ccccc3)c3[nH]c4ccc(OC)cc4c3C[C@@]2(C)C1=O", "note": "(racemic) [Example 57, (3aSR, 10RS)-2-[3-(Allyl-methyl-amino)-propyl]-6-methoxy-3a-methyl-10-phenyl-3a,4,9,10-tetrahydro-2,9,10a-triaza-cyclopenta[b] fluorene-1,3-dione]", "EC50": "≤ 1"}, {"smiles": "COc1ccc2[nH]c3c(c2c1)C[C@@]1(C)C(=O)N(CCCn2ccnc2)C(=O)N1[C@@H]3c1ccccc1", "note": "(racemic) [Example 63, (3aSR, 10RS)-2-(3-Imidazol-1-yl-propyl)-6-methoxy-3a-methyl-10-phenyl-3a,4,9,10-tetrahydro-2,9,10a-triaza-cyclopenta[b]fluorene-1,3-dione]", "EC50": "≤ 1"}, {"smiles": "C=CCN(C)CCN1C(=O)N2[C@H](c3ccccc3)c3[nH]c4ccc(OC)cc4c3C[C@@]2(C)C1=O", "note": "(racemic) [Example 37, (3aSR, 10RS)-2-[2-(Allyl-methyl-amino)-ethyl]-6-methoxy-3a-methyl-10-phenyl-3a,4,9,10-tetrahydro-2,9,10a-triaza-cyclopenta [b]fluorene-1,3-dione]", "EC50": "≤ 1"}, {"smiles": "C=CCNCCCN1C(=O)N2[C@H](c3ccccc3)c3[nH]c4ccc(OC)cc4c3C[C@@]2(C)C1=O", "note": "(racemic) [Example 77, (3aSR, 10RS)-2-(3-Allyl-amino-propyl)-6-methoxy-3a-methyl-10-phenyl-3a,4,9,10-tetrahydro-2,9,10a-triaza-cyclopenta[b]fluorene-1,3-dione]", "EC50": "≤ 1"}, {"smiles": "CC[C@@]12Cc3c([nH]c4ccc(OC)cc34)[C@@H](c3ccccc3)N1C(=O)N(CCN)C2=O", "note": "(racemic) [Example 10, (3aSR,10RS)-2-(2-Amino-ethyl)-3a-ethyl-6-methoxy-10-phenyl-3a,4,9,10-tetrahydro-2,9,10a-triaza-cyclopenta[b]fluorene-1,3-dione]", "EC50": "≤ 1"}, {"smiles": "COCCNCCCN1C(=O)N2[C@H](c3ccccc3)c3[nH]c4ccc(OC)cc4c3C[C@@]2(C)C1=O", "note": "(racemic) [Example 70, (3aSR, 10RS)-6-Methoxy-2-[3-(2-methoxy-ethylamino)-propyl]-3a-methyl-10-phenyl-3a,4,9,10-tetrahydro-2,9,10a-triaza-cyclopenta[b]fluorene-1,3-dione]", "EC50": "≤ 1"}]}]}
